Results reported in ChEMBL document CHEMBL5465560, “Selectivity Literature for EUbOPEN Chemogenomic Library” (2024).

Key:
[1] = molecular target: 4-aminobutyrate aminotransferase, mitochondrial (Homo sapiens, UniProt P80404); assay: Selectivity interaction (GPCR panel (PDSP screen)) EUB0000311b ABAT; conditions: at 10 µM
[2] = Selectivity interaction (Eurofins CEREP Diversity Profile (receptors and ion channels)) EUB0000279b CRH; conditions: at 10 µM
[3] = molecular target: Tyrosine-protein kinase Fer (Homo sapiens) (UniProt P16591); assay: Selectivity interaction (ProQinase) EUB0000171b FER
[4] = molecular target: T1, Mitogen-activated protein kinase kinase kinase kinase 2 (Homo sapiens) (UniProt Q12851); assay: Selectivity interaction (ActivX KiNativ screen (ex vivo kinase selectivity in human PBMCs)) EUB0001619a MAP4K2; type: cell-based; conditions: PBMC, at 1 µM
T1 sequence (whole entry): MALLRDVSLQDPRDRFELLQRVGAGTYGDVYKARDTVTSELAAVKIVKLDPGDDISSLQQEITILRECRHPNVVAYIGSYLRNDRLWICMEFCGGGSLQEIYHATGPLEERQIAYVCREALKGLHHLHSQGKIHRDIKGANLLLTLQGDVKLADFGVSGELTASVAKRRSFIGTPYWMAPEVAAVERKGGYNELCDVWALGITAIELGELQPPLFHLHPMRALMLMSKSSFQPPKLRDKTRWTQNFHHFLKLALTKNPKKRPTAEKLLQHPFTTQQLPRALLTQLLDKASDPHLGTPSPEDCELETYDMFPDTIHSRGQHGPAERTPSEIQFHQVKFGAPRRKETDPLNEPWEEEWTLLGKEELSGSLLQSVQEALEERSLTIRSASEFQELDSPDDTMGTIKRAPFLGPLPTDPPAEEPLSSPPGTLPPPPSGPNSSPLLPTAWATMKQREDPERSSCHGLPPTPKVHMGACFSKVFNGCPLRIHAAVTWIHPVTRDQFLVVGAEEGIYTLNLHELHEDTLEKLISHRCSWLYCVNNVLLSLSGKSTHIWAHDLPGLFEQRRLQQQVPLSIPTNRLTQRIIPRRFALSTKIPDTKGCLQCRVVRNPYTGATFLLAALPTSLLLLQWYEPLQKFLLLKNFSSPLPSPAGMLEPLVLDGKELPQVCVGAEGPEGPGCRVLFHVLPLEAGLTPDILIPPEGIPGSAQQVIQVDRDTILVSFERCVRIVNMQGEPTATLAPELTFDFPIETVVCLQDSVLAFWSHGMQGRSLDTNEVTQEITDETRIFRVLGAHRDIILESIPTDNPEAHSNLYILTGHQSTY

[5] = molecular target: Mast/stem cell growth factor receptor Kit (Homo sapiens, UniProt P10721); assay: Selectivity interaction (KinomeScan (DiscoverX)) EUB0000607a KIT; conditions: at 10 µM
[6] = molecular target: T2, MAP/microtubule affinity-regulating kinase 4 (Homo sapiens) (UniProt Q96L34); assay: Selectivity interaction (Kinase panel (DSF assay)) EUB0001558a MARK4
T2 sequence (whole entry): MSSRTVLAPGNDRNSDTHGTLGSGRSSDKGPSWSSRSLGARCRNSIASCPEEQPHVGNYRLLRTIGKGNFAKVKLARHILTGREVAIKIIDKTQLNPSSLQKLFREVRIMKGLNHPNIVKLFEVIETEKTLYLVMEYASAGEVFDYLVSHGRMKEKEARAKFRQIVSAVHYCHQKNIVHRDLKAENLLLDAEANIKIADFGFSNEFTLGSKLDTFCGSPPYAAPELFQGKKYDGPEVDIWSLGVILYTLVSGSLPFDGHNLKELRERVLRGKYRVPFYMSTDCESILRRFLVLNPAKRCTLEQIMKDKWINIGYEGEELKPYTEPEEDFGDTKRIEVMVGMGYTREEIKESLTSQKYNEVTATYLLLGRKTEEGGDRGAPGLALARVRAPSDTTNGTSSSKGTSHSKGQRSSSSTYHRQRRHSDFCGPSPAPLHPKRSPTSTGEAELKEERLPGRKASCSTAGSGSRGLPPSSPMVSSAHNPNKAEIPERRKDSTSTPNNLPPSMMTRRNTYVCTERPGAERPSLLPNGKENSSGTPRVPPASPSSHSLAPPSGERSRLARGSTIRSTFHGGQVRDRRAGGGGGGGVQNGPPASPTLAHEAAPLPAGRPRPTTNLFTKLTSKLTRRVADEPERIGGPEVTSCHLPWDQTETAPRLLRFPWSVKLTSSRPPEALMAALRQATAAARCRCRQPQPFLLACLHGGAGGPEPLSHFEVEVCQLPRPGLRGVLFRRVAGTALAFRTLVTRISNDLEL

[7] = molecular target: DNA-dependent protein kinase catalytic subunit (Homo sapiens) (UniProt P78527); assay: Selectivity interaction (ActivX KiNativ screen (kinase selectivity in THP-1 cell lysates)) EUB0000639a PRKDC; type: subcellular; conditions: lysate, at 5 µM
[8] = molecular target: T3, Mitogen-activated protein kinase kinase kinase 3 (Homo sapiens) (UniProt Q99759); assay: Selectivity interaction (ActivX KiNativ screen (kinase selectivity in THP-1 cell lysates)) EUB0000639a MAP3K3; type: subcellular; conditions: lysate, at 0.2 µM
T3 sequence (whole entry): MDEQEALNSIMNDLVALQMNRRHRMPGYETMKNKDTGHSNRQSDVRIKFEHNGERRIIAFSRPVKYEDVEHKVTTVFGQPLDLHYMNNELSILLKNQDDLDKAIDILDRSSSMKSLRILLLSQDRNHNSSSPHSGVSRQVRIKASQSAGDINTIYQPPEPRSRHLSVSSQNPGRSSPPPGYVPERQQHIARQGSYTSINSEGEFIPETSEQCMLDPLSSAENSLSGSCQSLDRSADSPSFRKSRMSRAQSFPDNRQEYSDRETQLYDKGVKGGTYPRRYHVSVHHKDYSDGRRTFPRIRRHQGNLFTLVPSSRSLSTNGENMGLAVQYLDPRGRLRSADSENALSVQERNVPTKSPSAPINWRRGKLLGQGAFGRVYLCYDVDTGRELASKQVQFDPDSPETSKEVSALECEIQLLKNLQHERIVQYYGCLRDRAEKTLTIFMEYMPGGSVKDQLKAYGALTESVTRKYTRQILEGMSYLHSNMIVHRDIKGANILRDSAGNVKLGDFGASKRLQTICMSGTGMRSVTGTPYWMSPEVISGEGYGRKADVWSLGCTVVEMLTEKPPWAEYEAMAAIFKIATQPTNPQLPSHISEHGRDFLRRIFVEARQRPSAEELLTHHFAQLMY

Chain of Tyrosine-protein kinase Fer (Homo sapiens) (P16591 whole entry, looked up): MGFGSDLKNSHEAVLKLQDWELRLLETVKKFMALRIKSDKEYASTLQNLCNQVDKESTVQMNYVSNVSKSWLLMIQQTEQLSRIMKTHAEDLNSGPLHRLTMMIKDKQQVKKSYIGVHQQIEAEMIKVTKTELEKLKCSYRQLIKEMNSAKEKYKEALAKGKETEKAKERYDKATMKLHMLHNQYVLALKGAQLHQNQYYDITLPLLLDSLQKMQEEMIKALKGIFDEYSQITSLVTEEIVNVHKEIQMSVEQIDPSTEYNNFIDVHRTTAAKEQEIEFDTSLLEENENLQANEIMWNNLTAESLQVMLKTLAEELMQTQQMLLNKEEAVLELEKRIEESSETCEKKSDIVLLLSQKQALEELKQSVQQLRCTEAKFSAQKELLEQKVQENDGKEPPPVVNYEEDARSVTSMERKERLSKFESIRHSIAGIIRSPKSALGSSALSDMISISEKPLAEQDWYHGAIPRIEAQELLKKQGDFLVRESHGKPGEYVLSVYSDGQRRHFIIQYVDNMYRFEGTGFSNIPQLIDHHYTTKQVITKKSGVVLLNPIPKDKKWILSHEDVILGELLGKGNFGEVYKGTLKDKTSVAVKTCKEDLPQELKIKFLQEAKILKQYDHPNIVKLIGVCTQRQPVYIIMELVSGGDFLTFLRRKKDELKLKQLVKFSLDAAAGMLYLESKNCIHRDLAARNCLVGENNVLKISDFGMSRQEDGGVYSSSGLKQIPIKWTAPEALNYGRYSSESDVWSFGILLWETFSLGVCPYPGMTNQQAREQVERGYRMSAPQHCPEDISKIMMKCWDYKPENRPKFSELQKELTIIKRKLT
Chain of 4-aminobutyrate aminotransferase, mitochondrial (P80404 whole entry): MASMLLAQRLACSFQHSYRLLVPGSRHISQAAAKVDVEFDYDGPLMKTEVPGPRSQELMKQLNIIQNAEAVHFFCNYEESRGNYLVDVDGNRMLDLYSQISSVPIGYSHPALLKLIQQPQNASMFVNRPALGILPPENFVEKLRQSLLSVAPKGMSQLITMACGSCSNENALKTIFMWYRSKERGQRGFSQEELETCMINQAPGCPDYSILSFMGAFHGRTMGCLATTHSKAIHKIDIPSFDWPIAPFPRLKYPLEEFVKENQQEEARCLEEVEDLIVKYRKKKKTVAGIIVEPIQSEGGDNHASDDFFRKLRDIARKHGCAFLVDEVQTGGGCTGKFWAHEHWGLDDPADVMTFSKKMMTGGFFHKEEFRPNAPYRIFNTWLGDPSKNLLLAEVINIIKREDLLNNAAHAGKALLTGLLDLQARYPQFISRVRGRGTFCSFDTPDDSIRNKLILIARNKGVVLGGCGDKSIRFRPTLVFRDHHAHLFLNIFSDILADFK
Chain of Mast/stem cell growth factor receptor Kit (P10721 whole entry): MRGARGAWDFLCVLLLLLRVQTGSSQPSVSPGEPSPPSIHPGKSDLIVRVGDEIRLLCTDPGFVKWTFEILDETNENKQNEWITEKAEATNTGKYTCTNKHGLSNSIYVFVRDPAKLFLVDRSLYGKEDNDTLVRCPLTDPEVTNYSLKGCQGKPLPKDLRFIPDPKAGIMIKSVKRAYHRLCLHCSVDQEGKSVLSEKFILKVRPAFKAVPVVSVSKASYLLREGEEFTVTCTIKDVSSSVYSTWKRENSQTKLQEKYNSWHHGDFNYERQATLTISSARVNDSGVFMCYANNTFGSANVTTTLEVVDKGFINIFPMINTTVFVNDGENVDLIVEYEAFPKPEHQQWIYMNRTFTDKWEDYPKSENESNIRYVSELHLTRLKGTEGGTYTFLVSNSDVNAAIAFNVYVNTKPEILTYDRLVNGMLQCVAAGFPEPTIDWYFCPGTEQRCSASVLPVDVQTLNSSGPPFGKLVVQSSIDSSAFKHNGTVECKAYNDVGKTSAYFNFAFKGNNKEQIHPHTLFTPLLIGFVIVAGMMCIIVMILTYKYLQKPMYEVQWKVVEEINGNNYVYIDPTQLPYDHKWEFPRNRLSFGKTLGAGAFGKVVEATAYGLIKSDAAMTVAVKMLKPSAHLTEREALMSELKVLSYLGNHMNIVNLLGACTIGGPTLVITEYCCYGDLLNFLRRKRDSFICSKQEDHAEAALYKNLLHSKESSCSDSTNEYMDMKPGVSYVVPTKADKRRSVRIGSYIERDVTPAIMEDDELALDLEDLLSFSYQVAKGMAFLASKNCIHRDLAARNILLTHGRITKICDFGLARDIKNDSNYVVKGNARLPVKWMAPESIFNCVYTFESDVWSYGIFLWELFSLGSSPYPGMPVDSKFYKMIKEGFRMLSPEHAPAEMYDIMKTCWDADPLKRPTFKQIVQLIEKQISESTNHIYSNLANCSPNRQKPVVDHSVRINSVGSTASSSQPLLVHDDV

CCc1ccccc1C(=O)Nc1n[nH]c2c(C)c(F)c(C3C(C#N)=C(C)N(C)C(C)=C3C#N)cc12 [BAY-3827]
% of inhibition [1]: 85.6%

CC(=O)c1cc(-c2ccccc2OCC2CC2)c2ncccn12
% of control [2]: 118%

C=CC(=O)Nc1cccc(C(=O)Nc2ccc(Nc3cc(-c4[nH]c(SC)nc4C)ccn3)cc2)c1
% of control ([3]; at 1 µM): 104%
% of control ([3]; at 5 µM): 93%

N#Cc1cccc(-c2c[nH]c3ncnc(N4CCOCC4)c23)c1
% of inhibition [4]: 24%

CNC(=O)Nc1ccc(-c2nc(N3CC4CCC(C3)O4)c3cnn(C4CCC5(CC4)OCCO5)c3n2)cc1
% of control [5]: 93%

CC(C)(O)[C@H](F)CN1Cc2cc(NC(=O)c3cnn4cccnc34)c(N3CCOCC3)cc2C1=O
dTM [6]: 1.6 K

CC[C@@H]1[C@H](F)C(=O)N[C@@H]1COc1nccc2cc(C(N)=O)c(OC)cc12 [ZIMLOVISERTIB]
% of inhibition [7]: -11.7%
% of inhibition [8]: -0.9%
